Experimental data as given in ChEMBL document CHEMBL1139116, “Discovery and SAR of isonicotinamide BACE-1 inhibitors that bind beta-secretase in a N-terminal 10s-loop down conformation” (Bioorg Med Chem Lett, 2007).

Experiment: Partition coefficient, log P of the compound
Assay type: physicochemical
Conditions: octanol/water

CCCC[C@H](N)[C@H](Cc1ccccc1)NC(=O)c1cc(NCC2CC2C)nc(N(C)S(C)(=O)=O)c1 (mixture of isomers)
logP: > 2.51

CC1CC1CNc1cc(C(=O)N[C@@H](Cc2ccccc2)[C@@H](N)CCC(F)(F)F)cc(N(C)S(C)(=O)=O)n1 (mixture of isomers)
logP: > 3.5
